Here are results for four compounds from paper PMC11621054, “Biological evaluation of semi-synthetic isoindolinone isomers produced by Stachybotrys chartarum” (Frontiers in Fungal Biology, 2024).

The nature of series [1]: Hepatic phase II sulfation, horse cytosol. It counts as in vitro ADME. Conditions: 50 µM, 4 h. How it is done: (§1) Liver microsomes and cytosol were obtained for two organisms, horse and human. Fresh horse liver was purchased locally cut to pieces of ca. 50 g each and frozen in liquid nitrogen. Until further usage, the liver was stored at -80 °C. The preparation of microsomes and cytosol was carried out according to Balk et al. ([Balk et al., 1984]), and the protein content was determined by Bradford assay with bovine serum albumin as a reference ([Bradford, 1976]). Human liver microsomes and cytosol (150 Donors Ultrapool™) were provided by Corning, Inc. (Corning, New York, NY, USA). Besides assay-specific positive controls, all assays included stability controls, moreover, matrix influences were considered. For oxidation, additional non-oxidation controls were included. Each experiment was performed in duplicate. All stated concentrations are final concentration values. The test compounds (acetoxystachybotrylactam acetate-tryptophan 2a, 2b and acetoxystachybotrylactam acetate-tryptamine 3a, 3b ) were extended by the most biologically active derivative previously characterized by our group (acetoxystachybotrylactam acetate-agmatine 4 ) ([Steinert et al., 2022]).
(§2) For phase II metabolism, potential sulfation and glucuronidation were investigated. For sulfation, the reaction mixture was pipetted as follows: first, ultrapure water was added and mixed with a 1 mM DTT solution (contains DTT, 100 mM phosphate buffer, 100 µM ascorbic acid, pH 7.4). Then, PAPS (100 µM) and the substance of interest (50 µM) were added, which was concluded by the addition of horse/human cytosol (10 mg protein/mL). For glucuronidation, first, ultrapure H2O, phosphate buffer (50 mM) and MgCl2 (5 mM) were added to the reaction vessel, followed by addition of the investigated substance (50 µM), UDPGA (5 µM), and horse/human microsomes (1 mg protein/mL), respectively. For both assays, the final volume was 100 µL which was subsequently incubated for 4 h at 37 °C in darkness. […] After centrifugation (4 °C, 10 min, 15,000 rpm), 150 µL of supernatant was diluted with 850 µL H2O, which was subsequently analyzed by HPLC-qToF-HRMS. […]

In series [2] the target is T1, human Factor Xa (Homo sapiens, UniProt P00742).
T1 construct: human Factor Xa, HFXA, > 95% purity; Molecular Innovations; purchased Molecular Innovations HFXA
T1 sequence (P00742 235-488 limits assumed): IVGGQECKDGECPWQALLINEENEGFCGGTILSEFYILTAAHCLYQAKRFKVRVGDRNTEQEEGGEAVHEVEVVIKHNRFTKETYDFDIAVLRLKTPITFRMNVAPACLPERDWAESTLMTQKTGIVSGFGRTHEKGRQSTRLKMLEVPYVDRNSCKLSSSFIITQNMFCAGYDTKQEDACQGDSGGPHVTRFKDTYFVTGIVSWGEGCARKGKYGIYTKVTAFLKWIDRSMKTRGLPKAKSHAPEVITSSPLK
T1 sequence (P00742 41-179 partner limits assumed): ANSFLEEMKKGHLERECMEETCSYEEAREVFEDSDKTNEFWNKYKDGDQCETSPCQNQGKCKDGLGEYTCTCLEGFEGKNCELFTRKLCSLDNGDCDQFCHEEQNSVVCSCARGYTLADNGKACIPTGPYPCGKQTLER
The series is described as follows: Serine protease inhibition assay, fluorogenic substrate, FXa. It counts as biochemical. The following applies: 200 µM, endpoint RFU after 1 h, 25 °C. How it is done: (§3) The inhibitory activity of further semi-synthesized compounds toward the coagulation factor XIIa, thrombin, FXIa, FXa, and trypsin was measured by quantifying the hydrolysis rate of the fluorogenic substrates as reported previously ([Korff et al., 2020]; [Platte et al., 2021]; [Imberg et al., 2022]). Briefly, the activity was tested in buffer (10 mM Tris-Cl, 150 mM NaCl, 10 mM MgCl2·6 H2O, 1 mM CaCl2·2 H2O, 0.1% w/v BSA, 0.01% v/v Triton-X100, pH 7.4) utilizing clear flat-bottom, black polystyrene 96-well plates. […] Fluorescence intensity was measured with Microplate Reader Mithras LB 940 (Berthold Technologies, excitation at 355 nm, emission at 460 nm) for a period of 1 h with a read every minute. […] To derive % of enzyme inhibition, endpoint RFU (single fluorescence reading after 1 h) was used. […]

The next series concerns the target T2, human β-FXIIa (Homo sapiens, UniProt P00748).
T2 construct: human β-FXIIa, HFXIIAB, > 95% purity; Molecular Innovations; purchased Molecular Innovations HFXIIAB
The series is described as follows: Serine protease inhibition assay, fluorogenic substrate, FXIIa. It counts as biochemical. Conditions: 200 µM, endpoint RFU after 1 h, 25 °C. On the procedure:
(§4) The inhibitory activity of further semi-synthesized compounds toward the coagulation factor XIIa, thrombin, FXIa, FXa, and trypsin was measured by quantifying the hydrolysis rate of the fluorogenic substrates as reported previously ([Korff et al., 2020]; [Platte et al., 2021]; [Imberg et al., 2022]). Briefly, the activity was tested in buffer (10 mM Tris-Cl, 150 mM NaCl, 10 mM MgCl2·6 H2O, 1 mM CaCl2·2 H2O, 0.1% w/v BSA, 0.01% v/v Triton-X100, pH 7.4) utilizing clear flat-bottom, black polystyrene 96-well plates. The enzymes (human β-FXIIa, HFXIIAB, > 95% purity; Molecular Innovations, 2.5 nM – final concentration; human α-thrombin (active) protein, ABIN2127880, > 95% purity; antibodies-online, 0.25 nM – final concentration; human Factor Xa, HFXA, > 95% purity; Molecular Innovations, 2.5 nM – final concentration; human factor XIa, HFXIA, >95% purity; Molecular Innovations, 0.5 nM – final concentration porcine trypsin; Merck, 3.5 nM – final concentration) and the fluorogenic substrates for FXIIa: Boc-Gln-Gly-Arg-AMC (Pepta Nova, 25 µM – final concentration, Km = 167 µM); for thrombin: Boc Val Pro Arg AMC (Pepta Nova, 25 µM – final concentration, Km = 18 µM); for FXa: Boc-Ile-Glu-Gly-Arg-AMC (Pepta Nova, 25 µM – final concentration); for FXIa: Boc-Glu-(OBzl)-Ala-Arg-AMC (Pepta Nova, 25 µM – final concentration); for trypsin: Z-Gly-Gly-Arg-AMC (Sigma-Aldrich, 25 µM – final concentration) were used. The fluorogenic substrate solution was added into the wells followed by the addition of test-compounds solution, and the reaction was triggered by addition of the enzyme solution (final testing volume – 150 µL). In case of blank (substrate + buffer) and control (substrate + enzyme) wells, DMSO was added instead of the test-compounds’ solution. Fluorescence intensity was measured with Microplate Reader Mithras LB 940 (Berthold Technologies, excitation at 355 nm, emission at 460 nm) for a period of 1 h with a read every minute. The reactions were performed at 25 °C. To derive % of enzyme inhibition, endpoint RFU (single fluorescence reading after 1 h) was used. As a positive controls for thrombin, FXa, FXIIa, FXIa, and trypsin were used dabigatran (500 nM), rivaroxaban (500 nM), compound “39b” (500 nM) ([Platte et al., 2021]), Inhibitor 5t (8 µM) ([Imberg et al., 2022]), Inhibitor E (2 µM) ([Erbacher et al., 2024]), respectively. Semi-synthesized compounds were screened at 200 µM.

For another series, the target named is T3, porcine trypsin (Sus scrofa, UniProt P00761).
T3 construct: porcine trypsin; Merck, 3.5 nM – final concentration; purchased Merck
T3 sequence (P00761 9-231): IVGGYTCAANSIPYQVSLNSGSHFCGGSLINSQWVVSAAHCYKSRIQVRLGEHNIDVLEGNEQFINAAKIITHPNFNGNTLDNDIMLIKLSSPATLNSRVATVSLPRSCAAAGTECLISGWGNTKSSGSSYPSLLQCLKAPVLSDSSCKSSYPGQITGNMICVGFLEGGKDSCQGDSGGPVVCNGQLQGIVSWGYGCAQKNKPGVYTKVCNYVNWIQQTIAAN
The series is described as follows: Serine protease inhibition assay, fluorogenic substrate, trypsin. In kind it is biochemical. The following applies: 200 µM, endpoint RFU after 1 h, 25 °C. How it is done: as §3

A short description of series [3]: Hepatic phase II sulfation, human cytosol. In kind it is in vitro ADME. Conditions: 50 µM, 4 h. How it is done:
as §1, §2

The target of the next series is T4, human factor XIa (Homo sapiens, UniProt P03951).
T4 construct: human factor XIa, HFXIA, >95% purity; Molecular Innovations; purchased Molecular Innovations HFXIA
T4 sequence (P03951 388-625 limits assumed): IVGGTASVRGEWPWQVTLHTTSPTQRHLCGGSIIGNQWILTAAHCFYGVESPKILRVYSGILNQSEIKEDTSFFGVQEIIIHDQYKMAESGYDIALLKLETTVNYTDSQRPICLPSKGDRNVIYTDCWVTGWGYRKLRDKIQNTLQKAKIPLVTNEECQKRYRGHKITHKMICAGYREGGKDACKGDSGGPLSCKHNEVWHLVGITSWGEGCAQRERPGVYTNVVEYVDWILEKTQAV
T4 sequence (P03951 19-387 partner limits assumed): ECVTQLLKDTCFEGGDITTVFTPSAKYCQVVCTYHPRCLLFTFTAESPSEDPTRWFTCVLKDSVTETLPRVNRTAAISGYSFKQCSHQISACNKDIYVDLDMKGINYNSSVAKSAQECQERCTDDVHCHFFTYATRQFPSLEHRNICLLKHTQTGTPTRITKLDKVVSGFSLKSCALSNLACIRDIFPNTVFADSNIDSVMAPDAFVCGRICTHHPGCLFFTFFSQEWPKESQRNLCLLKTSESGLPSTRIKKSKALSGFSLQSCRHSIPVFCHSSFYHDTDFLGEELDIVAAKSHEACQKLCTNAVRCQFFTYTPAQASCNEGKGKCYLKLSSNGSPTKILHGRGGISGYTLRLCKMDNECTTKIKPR
The series is described as follows: Serine protease inhibition assay, fluorogenic substrate, FXIa. Conditions: endpoint RFU after 1 h, 25 °C. It counts as biochemical. How it is done: as §4

Series [4] relates to lung adenocarcinoma cells (A549, CCL-185). Conditions: A549, 24 h incubation, resazurin. A general note: Resazurin is reduced to fluorescent resorufin, in cell work by metabolically active cells.
Series [5] can be described thus: Precipitation in cell culture medium. In kind it is physicochemical. Conditions: cell culture medium (DMEM), 0.5% DMSO.
In a further series the test system is human α-thrombin. Further details: method as in Steinert et al., 2022. Conditions: 500 nM; ref Steinert et al., 2022; cited from earlier work.
Series [6] deals with T1, human Factor Xa. The arrangement: method as in Steinert et al., 2022. The following applies: 500 nM; ref Steinert et al., 2022; cited from earlier work.
The test system of series [7] is plasma coagulation. The arrangement: method as in Steinert et al., 2022. Conditions: ref Steinert et al., 2022; cited from earlier work.
Series [8] in a line: Hepatic phase II glucuronidation, human microsomes. In kind it is in vitro ADME. The following applies: human microsomes, 50 µM, 4 h. On the procedure: as §1
For phase II metabolism, potential sulfation and glucuronidation were investigated. For sulfation, the reaction mixture was pipetted as follows: first, ultrapure water was added and mixed with a 1 mM DTT solution (contains DTT, 100 mM phosphate buffer, 100 µM ascorbic acid, pH 7.4). Then, PAPS (100 µM) and the substance of interest (50 µM) were added, which was concluded by the addition of horse/human cytosol (10 mg protein/mL). For glucuronidation, first, ultrapure H2O, phosphate buffer (50 mM) and MgCl2 (5 mM) were added to the reaction vessel, followed by addition of the investigated substance (50 µM), UDPGA (5 µM), and horse/human microsomes (1 mg protein/mL), respectively. For both assays, the final volume was 100 µL which was subsequently incubated for 4 h at 37 °C in darkness. Quenching and protein precipitation was achieved by adding 200 µL of cold MeCN (-20 °C). After centrifugation (4 °C, 10 min, 15,000 rpm), 150 µL of supernatant was diluted with 850 µL H2O, which was subsequently analyzed by HPLC-qToF-HRMS. For both experiments, 50 µM 7-hydroxycumarin served as positive control.
Chromatographic separation and mass spectrometric detection were identical to the parameters already described for the fragmentation experiments for phase I and phase II glucuronidation metabolism. For sulfation, the HPLC-qToF-HRMS was operated in negative ionization mode at -4.5 kV and otherwise identical source parameters as previously described. […]

Series [9] has as its system lung adenocarcinoma cells (A549, CCL-185). Further details: method as in Steinert et al., 2022. Conditions: ref Steinert et al., 2022; cited from earlier work.
Series [10] in a line: Hepatic phase I metabolism (oxidation), horse microsomes. It counts as in vitro ADME. Conditions: 10 µM, 90 min. How it is done:
as §1
(§5) The phase I metabolism was investigated utilizing a NADPH- regenerating system. […] After centrifugation (4 °C, 10 min, 15,000 rpm), 150 µL of supernatant was diluted with 850 µL H2O, which was subsequently analyzed by HPLC-qToF-HRMS. […]

The subject of series [11] is Human liver carcinoma cells (HepG2, HB-8065). Further details: method as in Steinert et al., 2022. Conditions: HepG2; ref Steinert et al., 2022; cited from earlier work.
Series [12] relates to plasma coagulation. The arrangement: method as in Steinert et al., 2022. The following applies: ref Steinert et al., 2022; cited from earlier work. The source holds these as a separate data set.
Series [13] can be described thus: Hepatic phase I metabolism (oxidation), human microsomes. The following applies: 10 µM, 90 min. In kind it is in vitro ADME. How it is done:
as §1, §5

T2 sequence (P00748 373-615 limits assumed, other chains not shown): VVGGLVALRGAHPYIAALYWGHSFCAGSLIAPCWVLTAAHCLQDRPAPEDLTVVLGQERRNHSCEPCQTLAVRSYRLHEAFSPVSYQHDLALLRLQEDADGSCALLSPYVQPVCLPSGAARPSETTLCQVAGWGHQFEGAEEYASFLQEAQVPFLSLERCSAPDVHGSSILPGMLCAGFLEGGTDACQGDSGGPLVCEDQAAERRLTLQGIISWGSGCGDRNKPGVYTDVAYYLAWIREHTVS

On to `CC(=O)OC1CC2(C)C(CCC(C)C23Cc2c(O)cc4c(c2O3)C(=O)N(CCc2c[nH]c3ccccc23)C4)C(C)(C)C1OC(C)=O` (stereo not shown) [Compound 3b, Acetoxystachybotrylactam acetate-tryptamine], for which the “metabolism under sulfation conditions, in words” value in [1] and in series [3] was “did undergo metabolism” in each case. In addition, the “inhibition of FXa” value against human Factor Xa [2] is reported as “no inhibition”. On human β-FXIIa, the “inhibition of FXIIa” value was “no inhibition”. In addition, the inhibition of trypsin entry at porcine trypsin is reported as “no inhibition”. Also, at human factor XIa, at 200 µM the inhibition was 17%. In addition, the “cytotoxicity (cell viability, T/C), in words” value in [4] is “no impact on cell viability was observed”. In [5], the “concentration at which precipitation in cell culture medium starts” value was at least 1000 nM.

With `[H]/N=C(/N)c1ccc(NCc2nc3cc(C(=O)N(CCC(=O)O)c4ccccn4)ccc3n2C)cc1` [Dabigatran, dabigatran], in the series on human α-thrombin, the “inhibition of thrombin (positive control)” value is recorded as 98.3 ± 0.1%.

For `O=C(NC[C@H]1CN(c2ccc(N3CCOCC3=O)cc2)C(=O)O1)c1ccc(Cl)s1` [rivaroxaban], the “inhibition of FXa (positive control)” value at human Factor Xa [6] is listed as 99.8 ± 0.3%.

“acetoxystachybotrylactam acetate-agmatine [Compound 4]”: in the series on plasma coagulation [7], the “plasma coagulation, prothrombin time” value is “prolonged plasma coagulation”. In addition, the “metabolism under sulfation conditions, in words” value in series [1] and in [3] was “did undergo metabolism” throughout. In addition, in series [8], the “glucuronidation: conversion and formation of glucuronides, in words” value is “best conversion”. In addition, the “cytotoxicity, in words” value in series [9] and in series [11] was “no cytotoxicity” throughout. Further, the “phase I conversion, in words” value in series [10] and in [13] was “fastest among the reaction products to be metabolized” in each case. The “plasma coagulation, activated partial thromboplastin time” value with plasma coagulation [12] is “prolonged plasma coagulation”.
